Measurements taken from patent publication US6943178B2 (Wyeth, priority 2001, dated 2005).
Where a name gives a salt, the structure may show the parent alone. Read-outs that look alike come from different tables or passages of the source.

Experiments:
serotonin transporter = target: T1, serotonin transporter (Rattus norvegicus, UniProt P31652); test: 3H-paroxetine displacement, serotonin transporter affinity; format: binding
T1 construct: displace ^3H-paroxetine from male rat frontal cortical membranes; from tissue; host or cells: male rat frontal cortex membranes

human 5-HT1A receptors = target: T2, human 5-HT1A receptors (Homo sapiens, UniProt P08908); test: [3H] 8-OHDPAT displacement, 5-HT1A receptor affinity; format: binding
T2 construct: expressed in transfected cells; host or cells: CHO cells
T2 sequence (P08908 1-422): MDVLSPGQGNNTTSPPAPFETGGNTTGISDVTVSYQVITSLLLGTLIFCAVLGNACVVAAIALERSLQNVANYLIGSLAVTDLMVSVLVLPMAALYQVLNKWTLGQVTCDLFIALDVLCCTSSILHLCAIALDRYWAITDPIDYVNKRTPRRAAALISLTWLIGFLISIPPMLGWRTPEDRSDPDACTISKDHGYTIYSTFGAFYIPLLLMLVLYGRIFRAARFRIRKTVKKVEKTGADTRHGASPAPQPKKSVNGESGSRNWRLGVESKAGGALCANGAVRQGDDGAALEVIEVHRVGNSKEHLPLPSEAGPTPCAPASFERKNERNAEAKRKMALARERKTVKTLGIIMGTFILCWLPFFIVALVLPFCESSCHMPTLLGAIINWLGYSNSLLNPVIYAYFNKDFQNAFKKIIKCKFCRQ
Excerpt: High affinity for the serotonin 5-HT1A receptor was established by testing the claimed compound's ability to displace [^3H] 8-OHDPAT (dipropylaminotetralin) from the 5-HT1A serotonin receptor following a modification of the procedure of Hall et al., J. Neurochem. 44, 1685 (1985) which utilizes CHO cells stably transfected with human 5-HT1A receptors.

[1] = target: T3, cloned human 5-HT1A receptors (Homo sapiens, UniProt P08908); test: 35S-GTPγS binding assay, 5-HT1A antagonist activity; format: biochemical
T3 construct: expressed in transfected cells
T3 sequence (P08908 1-422): T2 sequence (P08908 1-422)
Method: Antagonist activity at 5-HT1A receptors was established by using a ^35S-GTPγS binding assay similar to that used by Lazareno and Birdsall (Br. J. Pharmacol. 109: 1120, 1993), in which the test compound's ability to affect the binding of ^35S-GTPγS to membranes containing cloned human 5-HT1A receptors was determined. Agonists produce an increase in binding whereas antagonists produce no increase but rather reverse the effects of the standard agonist 8-OHDPAT. The test compound's maximum inhibitory effect is represented as the Imax, while its potency is defined by the IC50.

[2] = 35S-GTPγS binding, reversal of the effects of the standard agonist 8-OHDPAT
[3] = 35S-GTPγS binding, reversal of the effects of the standard agonist 8-OHDPAT, read-out: 5-HT1A Function IC50

T1 sequence (P31652 whole entry): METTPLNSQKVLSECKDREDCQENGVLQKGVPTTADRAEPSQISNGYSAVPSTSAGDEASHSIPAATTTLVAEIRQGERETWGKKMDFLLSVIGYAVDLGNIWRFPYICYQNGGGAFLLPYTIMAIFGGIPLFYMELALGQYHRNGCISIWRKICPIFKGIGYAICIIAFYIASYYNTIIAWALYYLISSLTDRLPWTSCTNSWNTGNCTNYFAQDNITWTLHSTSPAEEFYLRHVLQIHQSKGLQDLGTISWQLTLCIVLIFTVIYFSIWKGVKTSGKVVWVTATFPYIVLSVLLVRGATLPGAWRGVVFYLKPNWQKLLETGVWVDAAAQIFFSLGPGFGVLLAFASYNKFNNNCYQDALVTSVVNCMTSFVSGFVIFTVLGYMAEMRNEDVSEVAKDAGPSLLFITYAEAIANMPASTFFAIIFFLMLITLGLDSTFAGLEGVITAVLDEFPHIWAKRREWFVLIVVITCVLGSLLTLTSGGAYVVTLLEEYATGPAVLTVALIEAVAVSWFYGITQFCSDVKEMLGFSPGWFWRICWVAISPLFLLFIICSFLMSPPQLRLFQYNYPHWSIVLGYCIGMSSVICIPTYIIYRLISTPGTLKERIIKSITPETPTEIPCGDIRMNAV

| SMILES | melting point [°C] | Ki (serotonin transporter) [nM] | Ki (human 5-HT1A receptors) [nM] | IC50 [1] [nM] | 5-HT1A Function Imax (maximum inhibitory effect) [1, 2] | IC50 [1, 3] [nM] | Ki (human 5-HT1A receptors; displacement of [3H] 8-OHDPAT, CHO cells stably transfected with human 5-HT1A receptors, read-out: 5-HT1A Receptor Affinity KI) [nM] |
| --- | --- | --- | --- | --- | --- | --- | --- |
| O=c1ccoc2c3c(ccc12)OC(CN1CC=C(c2c[nH]c4ccc(F)cc24)CC1)CO3 (stereo not drawn) (as salt: fumarate) (hydrate or solvate) [Example 1, 3-[4-(5-Fluoro-1H-indol-3-yl)-3,6-dihydro-2H-pyridin-1-ylmethyl]-2,3-dihydro-7H-pyrano[2,3-f][1,4]benzodioxin-7-one] | 106 to 108 |  |  |  |  |  |  |
| Fc1ccc2[nH]cc(C3=CCN(CC4COc5ccc6c(c5O4)OCCC6)CC3)c2c1 (stereo not drawn) (as salt: oxalate) [Example 2, 5-Fluoro-3-[1,2,3,6-tetrahydro-1-[(2,3,8,9-tetrahydro-7H-pyrano[2,3-f][1,4]benzodioxin-2-yl)methyl]-4-pyridinyl]-1H-indole] | 146 to 148 |  |  |  |  |  |  |
| C1=C(c2c[nH]c3ccccc23)CCN(CC2COc3ccc4c(c3O2)OCCC4)C1 (stereo not drawn) (as salt: oxalate) [Example 4, 3-{1-(2,3,8,9-Tetrahydro-7H-[1,4]dioxino[2,3-h]chromen-2-ylmethyl)-1,2,3,6-tetrahydropyridin-4-yl}-1H-indole] | 140 |  |  |  |  |  |  |
| O=c1ccoc2c3c(ccc12)OC[C@H](CN1CC=C(c2c[nH]c4ccc(F)cc24)CC1)O3 [Example 1] |  | 2.69 | 119 | 2.37 | 100 |  |  |
| Fc1ccc2[nH]cc(C3=CCN(CC4COc5ccc6c(c5O4)OCCC6)CC3)c2c1 (stereo not drawn) [Example 2, 5-Fluoro-3-[1,2,3,6-tetrahydro-1-[(2,3,8,9-tetrahydro-7H-pyrano[2,3-f][1,4]benzodioxin-2-yl)methyl]-4-pyridinyl]-1H-indole] |  | 2.57 | 27.6 |  | 100 | 0.56 |  |
| O=C1CCOc2c1ccc1c2OC(CN2CC=C(c3c[nH]c4ccccc34)CC2)CO1 (stereo not drawn) [Example 3, 3-[4-(1H-indol-3-yl)-3,6-dihydro-2H-pyridin-1-ylmethyl]-2,3,6,7-tetrahydro-1,4,5-trioxa-phenanthren-8-one] | 210 | 2.74 |  |  |  |  | 156 |
| C1=C(c2c[nH]c3ccccc23)CCN(CC2COc3ccc4c(c3O2)OCCC4)C1 (stereo not drawn) [Example 4, 3-{1-(2,3,8,9-Tetrahydro-7H-[1,4]dioxino[2,3-h]chromen-2-ylmethyl)-1,2,3,6-tetrahydropyridin-4-yl}-1H-indole] |  | 0.9 | 44.1 |  | 87.0 | 0.38 |  |
